This experiment has as its target T1, human PAR4 (Homo sapiens, UniProt Q96RI0).
T1 construct: expressed in transfected cells; host or cells: HEK293 PAR4 Clone 1.2A (BMS Arctic ID 383940)
T1 sequence (Q96RI0 18-385): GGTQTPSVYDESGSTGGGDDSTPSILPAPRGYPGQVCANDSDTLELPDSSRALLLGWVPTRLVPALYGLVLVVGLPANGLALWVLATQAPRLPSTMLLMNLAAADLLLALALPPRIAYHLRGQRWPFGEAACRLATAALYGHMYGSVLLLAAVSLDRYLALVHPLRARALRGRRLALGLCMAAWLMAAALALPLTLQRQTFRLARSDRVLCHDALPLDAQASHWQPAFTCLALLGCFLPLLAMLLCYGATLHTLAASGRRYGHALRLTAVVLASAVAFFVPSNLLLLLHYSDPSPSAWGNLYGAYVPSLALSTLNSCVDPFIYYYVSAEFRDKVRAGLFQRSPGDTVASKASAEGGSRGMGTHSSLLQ
The experiment is described as follows: PAR4 FLIPR assay: antagonism of agonist-peptide-induced calcium mobilization in PAR4-expressing HEK293 cells. The note with it: H-Ala-Phe(4-F)-[…]NH2-induced intracellular calcium mobilization, 11-point curves. In kind it is cell-based.

The results in this text go back to patent publication US12060347B2 (BRISTOL-MYERS SQUIBB COMPANY, priority 2016, dated 2024).

By IC50 is commonly meant the point on the concentration scale where inhibition reaches its midpoint. On to `Cc1ccc(-c2cc3ccccc3o2)c2ncc(OC(F)F)nc12` [Example 133, 5-(benzofuran-2-yl)-2-(difluoromethoxy)-8-methylquinoxaline], for which the half-maximal inhibitory concentration (IC50) came out at 570 nM.

As for `COc1cnc2c(-c3nc4cc(F)c(O[C@@H](C)[C@@H](C)OC(=O)Nc5ccc(C(=O)NC[C@@H](C)O)nc5)cc4s3)cc(C)cc2n1` [Example 439, (2R,3S)-3-((5-fluoro-2-(2-methoxy-7-methylquinoxalin-5-yl)benzo[d]thiazol-6-yl)oxy)butan-2-yl (6-(((R)-2-hydroxypropyl)carbamoyl)pyridin-3-yl)carbamate], the concentration for half-maximal inhibition (IC50) amounted to 0.9 nM.

For the compound `COc1cnc2c(-c3nc4c(C(O)C(C)(C)C)cc(OC)nc4s3)cc(C)cc2n1` (stereo not drawn) [Example 807, 1-(5-methoxy-2-(2-methoxy-7-methylquinoxalin-5-yl)thiazolo[5,4-b]pyridin-7-yl)-2,2-dimethylpropan-1-ol], the half-maximal inhibitory concentration (IC50) is 2.6 nM.

In the case of `COCc1cnc2c(-c3nc4c(Cl)cc(OCCNS(=O)(=O)c5ccccc5F)cc4s3)cc(C)cc2n1` [Example 100, N-(2-(4-chloro-2-(2-(methoxymethyl)-7-methylquinoxalin-5-yl)benzo[d]thiazol-6-yloxy)ethyl)-2-fluorobenzenesulfonamide], the IC50 amounted to 0.5 nM.

Regarding `Cc1cc(-c2nc3cccc(OCc4cscn4)c3s2)c2ncc(OC(F)F)nc2c1` [Example 15, 2-(2-(difluoromethoxy)-7-methylquinoxalin-5-yl)-7-(thiazol-4-ylmethoxy)benzo[d]thiazole], the concentration for half-maximal inhibition (IC50) came to 38 nM.

`COc1cnc2c(-c3nc4cc(F)c(O[C@@H](C)[C@@H](C)OC(=O)Nc5ccnc(CCO)c5)nc4s3)cc(C)cc2n1` [Example 717, (2R,3S)-3-((6-fluoro-2-(2-methoxy-7-methylquinoxalin-5-yl)thiazolo[5,4-b]pyridin-5-yl)oxy)butan-2-yl (2-(2-hydroxyethyl)pyridin-4-yl)carbamate]: the IC50 was found to be 1.6 nM.

Turning to `COCc1cnc2c(-c3nc4c(C)cc(OC)cc4s3)cc(C(=O)OC)cc2n1` [Example 204, methyl 8-(6-methoxy-4-methylbenzo[d]thiazol-2-yl)-3-(methoxymethyl) quinoxaline-6-carboxylate], the 50% inhibitory concentration (IC50) turned out to be 3.1 nM.

As for `COCc1cnc2c(-c3nc4ccc(OC)nc4s3)cc(C)cc2n1` [Example 147], the concentration for half-maximal inhibition (IC50) was found to be 1.7 nM.

Take `CNc1cnc2c(-c3nc4cc(F)c(O[C@@H](C)[C@@H](C)OC(=O)Nc5cnc(C)nc5)cc4s3)cc(Cl)cc2c1` [Example 652, (2R,3S)-3-((2-(6-chloro-3-(methylamino)quinolin-8-yl)-5-fluorobenzo[d]thiazol-6-yl)oxy)butan-2-yl (2-methylpyrimidin-5-yl)carbamate]: the 50% inhibitory concentration (IC50) was determined as 11 nM.

For `COCc1cnc2c(-c3cc4cc(OC)ccc4o3)cc(C)cc2n1` [Example 94, 5-(5-methoxybenzofuran-2-yl)-2-(methoxymethyl)-7-methylquinoxaline], the IC50 is 1.4 nM.

Turning to `COc1cnc2c(-c3nc4cc(F)c(O[C@@H](C)[C@@H](C)OC(=O)Nc5cnc(OCC(C)(C)O)nc5)cc4s3)cc(C)cc2n1` [Example 575, (2R,3S)-3-((5-fluoro-2-(2-methoxy-7-methylquinoxalin-5-yl)benzo[d]thiazol-6-yl)oxy)butan-2-yl (2-(2-hydroxy-2-methylpropoxy)pyrimidin-5-yl)carbamate], the IC50 is 0.6 nM.

With `COc1ccc(NC(=O)OCCOc2ccc3nc(-c4cc(C)cc5nc(OC)cnc45)sc3c2)cn1` [Example 115, 2-(2-(2-methoxy-7-methylquinoxalin-5-yl)benzo[d]thiazol-6-yloxy)ethyl 6-methoxypyridin-3-ylcarbamate], the IC50 amounted to 1.3 nM.

Take `COC(=O)c1cnc2c(-c3cc4ccccc4o3)cc(C)cc2n1` [Example 176, methyl 5-(benzofuran-2-yl)-7-methylquinoxaline-2-carboxylate]: the half-inhibitory concentration (IC50) is 980 nM.

As to `COc1cnc2c(-c3nc4c(Cl)c(F)c(OC[C@@H](C)OC(=O)Nc5ccc(C)nc5)cc4s3)cc(C)cc2n1` [Example 377, (R)-1-((4-chloro-5-fluoro-2-(2-methoxy-7-methylquinoxalin-5-yl)benzo[d]thiazol-6-yl)oxy)propan-2-yl (6-methylpyridin-3-yl)carbamate], the half-maximal inhibitory concentration (IC50) was 4.3 nM.

In the case of `COc1cnc2c(-c3nc4cc(F)c(OC[C@@H](C)OC(=O)Nc5ccc(C(=O)N6CCO[C@H](CO)C6)nc5)cc4s3)cc(C)cc2n1` [Example 477, (R)-1-((5-fluoro-2-(2-methoxy-7-methylquinoxalin-5-yl)benzo[d]thiazol-6-yl)oxy)propan-2-yl (6-((S)-2-(hydroxymethyl)morpholine-4-carbonyl)pyridin-3-yl)carbamate], the concentration for half-maximal inhibition (IC50) turned out to be 3 nM.

Turning to `COc1cncc(NC(=O)O[C@H](C)[C@H](C)Oc2cc3sc(-c4cc(Cl)cc5cc(OC)cnc45)nc3cc2F)c1` [Example 785, (2R,3S)-3-((2-(6-chloro-3-methoxyquinolin-8-yl)-5-fluorobenzo[d]thiazol-6-yl)oxy)butan-2-yl (5-methoxypyridin-3-yl)carbamate], the 50% inhibitory concentration (IC50) turned out to be 3.5 nM.

Consider `COCc1cnc2c(-c3nc4cc(F)c(OC)nc4s3)cc(C)cc2n1` [Example 180, 6-fluoro-5-methoxy-2-(2-(methoxymethyl)-7-methylquinoxalin-5-yl)thiazolo[5,4-b] pyridine], for which the IC50 turned out to be 2.7 nM.

For `COCc1cnc2c(-c3nc4cc(O)c(OC)cc4s3)cc(C)cc2n1` [Example 310, 6-methoxy-2-(2-(methoxymethyl)-7-methylquinoxalin-5-yl)benzo[d]thiazol-5-ol], the IC50 came out at 9.1 nM.

As for `COCc1cnc2c(-c3nc4c(Cl)c(F)c(OCCO)cc4s3)cc(C)cc2n1` [Example 293, 2-((4-chloro-5-fluoro-2-(2-(methoxymethyl)-7-methylquinoxalin-5-yl)benzo[d]thiazol-6-yl)oxy)ethanol], the IC50 was found to be 1 nM.

For `COc1cnc2c(-c3nc4c(C)c(F)c(OCCO)cc4s3)cc(C)cc2n1` [Example 288, 2-((5-fluoro-2-(2-methoxy-7-methylquinoxalin-5-yl)-4-methylbenzo[d]thiazol-6-yl)oxy)ethanol], the IC50 was 8.6 nM.

Take `COCc1cnc2c(-c3nc4c(C)c(C)c(OC)cc4s3)cc(C)cc2n1` [Example 284, 6-methoxy-2-(2-(methoxymethyl)-7-methylquinoxalin-5-yl)-4,5-dimethylbenzo[d]thiazole]: the IC50 stood at 5.9 nM.

As for `COc1cnc2c(-c3nc4c(C)cc(OCCNS(=O)(=O)c5cccnc5)cc4s3)cc(Cl)cc2n1` [Example 249, N-(2-((2-(7-chloro-2-methoxyquinoxalin-5-yl)-4-methylbenzo[d]thiazol-6-yl)oxy)ethyl)pyridine-3-sulfonamide], the half-inhibitory concentration (IC50) turned out to be 6.9 nM.

`COc1cnc2c(-c3nc4cc(F)c(OC[C@@H](C)OC(=O)Nc5ccnc(OCCO)c5)cc4s3)cc(C)cc2n1` [Example 552, (R)-1-((5-fluoro-2-(2-methoxy-7-methylquinoxalin-5-yl)benzo[d]thiazol-6-yl)oxy)propan-2-yl (2-(2-hydroxyethoxy)pyridin-4-yl)carbamate]: the IC50 stood at 0.7 nM.

Consider `CNC(=O)c1ccc(NC(=O)O[C@H](C)[C@H](C)Oc2cc3sc(-c4cc(Cl)cc5nc(OC)cnc45)nc3cc2F)cn1` [Example 832, (2R,3S)-3-((2-(7-chloro-2-methoxyquinoxalin-5-yl)-5-fluorobenzo[d]thiazol-6-yl)oxy)butan-2-yl (6-(methylcarbamoyl)pyridin-3-yl)carbamate], for which the IC50 came to 2.5 nM.

With `COc1cnc2c(-c3nc4c(C)cc(OC[C@@H](C)OC(=O)Nc5cncc(C#N)c5)nc4s3)cc(C)cc2n1` [Example 735, (R)-1-((2-(2-methoxy-7-methylquinoxalin-5-yl)-7-methylthiazolo[5,4-b]pyridin-5-yl)oxy) propan-2-yl (5-cyanopyridin-3-yl)carbamate], the concentration for half-maximal inhibition (IC50) worked out at 1.1 nM.

As to `CNC(=O)c1cc(NC(=O)O[C@H](C)COc2cc3sc(-c4cc(C)cc5nc(OC)cnc45)nc3c(Cl)c2F)ccn1` [Example 428, (R)-1-((4-chloro-5-fluoro-2-(2-methoxy-7-methylquinoxalin-5-yl)benzo[d]thiazol-6-yl)oxy)propan-2-yl (2-(methyl carbamoyl)pyridin-4-yl)carbamate], the IC50 amounted to 5.9 nM.

Turning to `COc1cnc2c(-c3nc4cc(F)c(OC[C@@H](C)OC(=O)Nc5cnc(C)nc5)cc4s3)cc(C#N)cc2n1` [Example 819, (R)-1-((2-(7-cyano-2-methoxyquinoxalin-5-yl)-5-fluorobenzo[d]thiazol-6-yl)oxy)propan-2-yl (2-methylpyrimidin-5-yl)carbamate], the IC50 was determined as 1.2 nM.

For `COc1cnc2c(-c3nc4c(Cl)c(F)c(OC)cc4s3)cc(Cl)cc2n1` [Example 215, 4-chloro-2-(7-chloro-2-methoxyquinoxalin-5-yl)-5-fluoro-6-methoxybenzo[d]thiazole], the 50% inhibitory concentration (IC50) was found to be 2.9 nM.

`COc1cnc2c(-c3nc4c(Cl)c(F)c(O[C@@H](C)[C@@H](C)OC(=O)Nc5cccnc5)cc4s3)cc(C)cc2n1` [Example 404, (2R,3S)-3-((4-chloro-5-fluoro-2-(2-methoxy-7-methylquinoxalin-5-yl)benzo[d]thiazol-6-yl)oxy)butan-2-yl pyridin-3-ylcarbamate]: the IC50 came out at 2.2 nM.

`COc1cnc2c(-c3nc4c(Cl)c(F)c(OCCN(C)C(=O)Nc5cnc(C)nc5)cc4s3)cc(C)cc2n1` [Example 520, 1-(2-((4-chloro-5-fluoro-2-(2-methoxy-7-methylquinoxalin-5-yl)benzo[d]thiazol-6-yl)oxy)ethyl)-1-methyl-3-(2-methylpyrimidin-5-yl)urea]: the IC50 was determined as 77 nM.
